Experimental data: patent EP4721732A1, “PHARMACEUTICAL COMPOSITION CONTAINING CRISDESALAZINE WITH IMPROVED STABILITY AND DISSOLUTION RATE” (priority 2023, dated 2024)
In brackets after ≈: the same amount, converted by molar mass. Read-outs that look alike come from different tables or passages of the source.

Assays:
[1] = pH-dependent equilibrium solubility; format: physicochemical; conditions: for Equilibrium Solubility: BLOD = below limit of detection; for solubility thermodynamic at 12 h / solubility thermodynamic at 24 h: purified water, thermodynamic from solid
Description: First, the inventors of the present invention measured the pH-dependent equilibrium solubility of crisdesalazine (2-hydroxy-5-[2-(4-trifluoromethylphenyl)ethylamino]benzoic acid), and the results of the solubility at 12 hours and 24 hours were as shown in Table 1 and Figure 1 below. […]

[2] = Compatibility evaluation of crisdesalazine with excipients; format: physicochemical
From the text: One embodiment of the present invention provides a pharmaceutical composition substantially free of lactose. The inventors conducted "compatibility" evaluation experiments between crisdesalazine and various excipients.
In other words, the long-term stability of crisdesalazine and lactose was difficult to predict based solely on short-term compatibility evaluation tests.
However, when compressed to a target hardness of 7-9 kPa, the target hardness was not achieved. The appearance of the tablet changed to a bluish gray color during the short period between mixing and compression.

- Equilibrium Solubility ([1]; pH 3, 12 hours): BLOD
- Equilibrium Solubility ([1]; pH 3, 24 hours): BLOD
- Equilibrium Solubility ([1]; pH 4, 12 hours): BLOD
- solubility thermodynamic at 12 h ([1]; pH 1, simulated gastric fluid, pH 1, 12 hours, read-out: Equilibrium Solubility): 16.4 µg/mL (≈ 50.4 µM)
- solubility thermodynamic at 24 h ([1]; pH 1, simulated gastric fluid, pH 1, 24 hours, read-out: Equilibrium Solubility): 15.7 µg/mL (≈ 48.3 µM)
- solubility thermodynamic at 12 h ([1]; pH 2, simulated gastric fluid, pH 2, 12 hours, read-out: Equilibrium Solubility): 2.6 µg/mL (≈ 7.99 µM)
- solubility thermodynamic at 24 h ([1]; pH 2, simulated gastric fluid, pH 2, 24 hours, read-out: Equilibrium Solubility): 1.7 µg/mL (≈ 5.23 µM)
- solubility thermodynamic at 24 h ([1]; pH 4, aqueous buffer, pH 4, 24 hours, read-out: Equilibrium Solubility): 2.2 µg/mL (≈ 6.76 µM)
- solubility thermodynamic at 12 h ([1]; pH 5, aqueous buffer, pH 5, 12 hours, read-out: Equilibrium Solubility): 0.7 µg/mL (≈ 2.15 µM)
- solubility thermodynamic at 24 h ([1]; pH 5, aqueous buffer, pH 5, 24 hours, read-out: Equilibrium Solubility): 5.9 µg/mL (≈ 18.1 µM)
- solubility thermodynamic at 12 h ([1]; pH 6, aqueous buffer, pH 6, 12 hours, read-out: Equilibrium Solubility): 6.4 µg/mL (≈ 19.7 µM)
- solubility thermodynamic at 24 h ([1]; pH 6, aqueous buffer, pH 6, 24 hours, read-out: Equilibrium Solubility): 11.5 µg/mL (≈ 35.4 µM)
- solubility thermodynamic at 12 h ([1]; pH 7, aqueous buffer, pH 7, 12 hours, read-out: Equilibrium Solubility): 38.2 µg/mL (≈ 117 µM)
- solubility thermodynamic at 24 h ([1]; pH 7, aqueous buffer, pH 7, 24 hours, read-out: Equilibrium Solubility): 39.7 µg/mL (≈ 122 µM)
- solubility thermodynamic at 12 h ([1]; pH 7, aqueous buffer, pH 7 or lower, 12 hours, read-out: equilibrium solubility in purified water): ≤ 38.2 µg/mL
- solubility thermodynamic at 24 h ([1]; pH 7, aqueous buffer, pH 7 or lower, 24 hours, read-out: equilibrium solubility in purified water): ≤ 39.7 µg/mL
- solubility thermodynamic at 12 h ([1]; pH 8, aqueous buffer, pH 8, 12 hours, read-out: Equilibrium Solubility): 254 µg/mL (≈ 781 µM)
- solubility thermodynamic at 24 h ([1]; pH 8, aqueous buffer, pH 8, 24 hours, read-out: Equilibrium Solubility): 252 µg/mL (≈ 773 µM)
- solubility thermodynamic at 12 h ([1]; pH 9, aqueous buffer, pH 9, 12 hours, read-out: Equilibrium Solubility): 1210 µg/mL (≈ 3720 µM)
- solubility thermodynamic at 24 h ([1]; pH 9, aqueous buffer, pH 9, 24 hours, read-out: Equilibrium Solubility): 1230 µg/mL (≈ 3780 µM)
- solubility thermodynamic at 12 h ([1]; pH 10, aqueous buffer, pH 10, 12 hours, read-out: Equilibrium Solubility): 685 µg/mL (≈ 2110 µM)
- solubility thermodynamic at 24 h ([1]; pH 10, aqueous buffer, pH 10, 24 hours, read-out: Equilibrium Solubility): 678 µg/mL (≈ 2080 µM)
- solubility thermodynamic at 12 h ([1]; pH 11, aqueous buffer, pH 11, 12 hours, read-out: Equilibrium Solubility): 662 µg/mL (≈ 2040 µM)
- solubility thermodynamic at 24 h ([1]; pH 11, aqueous buffer, pH 11, 24 hours, read-out: Equilibrium Solubility): 718 µg/mL (≈ 2210 µM)
- solubility thermodynamic at 12 h ([1]; pH 12, aqueous buffer, pH 12, 12 hours, read-out: Equilibrium Solubility): 1220 µg/mL (≈ 3770 µM)
- solubility thermodynamic at 24 h ([1]; pH 12, aqueous buffer, pH 12, 24 hours, read-out: Equilibrium Solubility): 1220 µg/mL (≈ 3760 µM)
- compatibility with lactose ([2]; 13-week compatibility study, only minor powder coagulation, minimal changes in impurities): judged to be compatible
- compatibility with excipients ([2]; with calcium phosphate dibasic, hydroxypropyl methylcellulose (HPMC), meglumine, magnesium oxide (MgO)): poor compatibility
SMILES: O=C(O)c1cc(NCCc2ccc(C(F)(F)F)cc2)ccc1O [crisdesalazine, 2-hydroxy-5-[2-(4-trifluoromethylphenyl)ethylamino]benzoic acid]
